# Assay results as given in publication PMC9604400, “Synthesis, Anticancer and Antitubercular Properties of New Chalcones and Their Nitrogen-Containing Five-Membered Heterocyclic Hybrids Bearing Sulfonamide Moiety” (International Journal of Molecular Sciences, 2022).
# How the values were obtained:
# [1] = tested on: NCI-H322M; assay: NCI-60 screen (SRB), non-small cell lung cancer; type: cell-based; conditions: Homo sapiens
# Protocol: All compounds selected by the US National Cancer Institute (NCI) were initially tested at a single dose (10^−5 M) on the full panel of 60 cancer cell lines represented by leukemia, melanoma, lung, colon, central nervous system (CNS), ovarian, kidney, prostate and breast cancer. Only compounds that were able to satisfy the predetermined inhibition criteria against a minimum number of cell lines proceeded to five-dose assays ([…], 0.1 and 0.01 μM).
# In these studies, human cancer cell lines were cultured in a RPMI-1640 medium containing 5% fetal bovine serum and 2 mM of L-glutamine. Following the protocol for a typical assay, cells were inoculated into 96-well plates and incubated at 37 °C, 5% CO2, 95% air, and 100% relative humidity for 24 h prior to the addition of the compounds to be tested. After 24 h, two plates of each cell line were fixed in situ with trichloroacetic acid (TCA) to represent a measure of the cell population for each cell line at the time of sample addition (Tz). Compounds were dissolved in DMSO to 400-fold the maximum desired concentration for analysis and subsequently diluted to twice the maximum desired concentration with medium containing 50 μg/mL gentamicin. An additional series of four dilutions at 10-fold concentration was performed to provide a total of five concentrations of the compound plus the control. Aliquots of 100 μL of these dilutions were taken and added to 96-well plates already containing 100 μL of the medium, resulting in the final required concentrations of the sample. The plates were incubated for 48 h at the same conditions. For adherent cells, the assay was terminated with the addition of cold TCA. Cells were fixed in situ by the slow addition of 50 μL of 50% (w/v) cold ATC (final concentration, 10% TCA) and incubated for 60 min at 4 °C. The supernatant was discarded, and the plates were washed five times with tap water and air dried. A quantity of 100 μL of 0.4% (w/v) sulforhodamine B (SRB) solution in 1% acetic acid was added to each well, and each plate was incubated for 10 min at room temperature. Upon completion of staining, unbound pigment was removed by five washes with 1% acetic acid and the plates were air-dried. The stains were solubilized with 10 mM Trizma base and absorbance was recorded on an automated plate reader at a wavelength of 515 nm. Using the absorbance measurements [time zero (Tz), growth control in the absence of the sample and growth test in the presence of the sample at the five concentration levels (Ti)], the percent growth was calculated for each sample at the concentration levels. The percent growth was calculated as: [(Ti − Tz)/(C − Tz)] × 100 for concentrations for which Ti > Tz, and [(Ti − Tz)/Tz] × 100 for concentrations for which Ti < Tz. Two dose-response parameters were calculated for each compound. The 50% growth inhibition (GI50) was calculated from [(Ti − Tz)/(C − Tz)] × 100 = 50, which is the sample concentration at which the net increase in protein is 50% lower in treated cells (as measured by SRB staining) compared to the net increase in protein seen in control cells and the LC50 (sample concentration at which a 50% reduction in protein measured at the end of treatment compared to the beginning), indicating a net loss of cells; calculated from [(Ti − Tz)/Tz] × 100 = −50. Values were calculated for each of these two parameters if the activity level was reached; however, if the effect was not reached or was exceeded, the value for that parameter was expressed as greater or less than the maximum or minimum of the concentration tested.
# [2] = tested on: breast cancer cell lines; assay: NCI-60 screen (SRB), breast cancer panel; type: cell-based; conditions: Homo sapiens, single dose 10 μM, read-out: GI (growth inhibition), range over panel
# [3] = tested on: SR; assay: NCI-60 screen (SRB), leukemia; conditions: Homo sapiens
# [4] = tested on: M14; assay: NCI-60 screen (SRB), melanoma; conditions: Homo sapiens
# [5] = tested on: UACC-257; assay: NCI-60 screen (SRB), melanoma; conditions: Homo sapiens
# [6] = tested on: SF-539; assay: NCI-60 screen (SRB), CNS cancer; conditions: Homo sapiens
# [7] = tested on: SNB-19; assay: NCI-60 screen (SRB), CNS cancer; conditions: Homo sapiens
# [8] = tested on: U251; assay: NCI-60 screen (SRB), CNS cancer; conditions: Homo sapiens
# [9] = tested on: COLO 205; assay: NCI-60 screen (SRB), colon cancer; conditions: Homo sapiens
# [10] = tested on: KM12; assay: NCI-60 screen (SRB), colon cancer; conditions: Homo sapiens
# [11] = tested on: SW-620; assay: NCI-60 screen (SRB), colon cancer; conditions: Homo sapiens
# [12] = tested on: 786-0; assay: NCI-60 screen (SRB), renal cancer; conditions: Homo sapiens
# [13] = tested on: ACHN; assay: NCI-60 screen (SRB), renal cancer; conditions: Homo sapiens
# [14] = tested on: TK-10; assay: NCI-60 screen (SRB), renal cancer; conditions: Homo sapiens
# [15] = tested on: MCF7; assay: NCI-60 screen (SRB), breast cancer; conditions: Homo sapiens
# [16] = tested on: HS 578T; assay: NCI-60 screen (SRB), breast cancer; conditions: Homo sapiens, Hs-578T
# [17] = tested on: BT-549; assay: NCI-60 screen (SRB), breast cancer; conditions: Homo sapiens
# [18] = tested on: T-47D; assay: NCI-60 screen (SRB), breast cancer; conditions: Homo sapiens, T47D
# [19] = tested on: IGROV1; assay: NCI-60 screen (SRB), ovarian cancer; conditions: Homo sapiens
compound,measurement,setting,value
"COc1cc(OC)c(S(N)(=O)=O)cc1C(=O)/C=C/c1ccc(C)cc1 [Compound 17c, (E)-2,4-Dimethoxy-5-(3-(p-tolyl)acryloyl)benzenesulfonamide]",IC50,[1]; five-dose screen,2.87 µM
same,CC50,[1]; read-out: LC50,34.7 µM
same,inhibition at 10 µM,[2],78.7 to 100%
same,IC50,[3],2.26 µM
same,CC50,[3]; read-out: LC50,> 100 µM
same,IC50,[4]; M14,3.25 µM
same,CC50,"[4]; M14, read-out: LC50",56 µM
same,IC50,[5]; UACC-257,3.86 µM
same,CC50,"[5]; UACC-257, read-out: LC50",41.9 µM
same,IC50,[6]; SF-539,2.17 µM
same,CC50,"[6]; SF-539, read-out: LC50",14.4 µM
same,IC50,[7]; SNB-19,3.65 µM
same,CC50,"[7]; SNB-19, read-out: LC50",45.3 µM
same,IC50,[8]; U-251,2.66 µM
same,CC50,"[8]; U-251, read-out: LC50",32.7 µM
same,IC50,[9]; COLO 205,3.33 µM
same,CC50,"[9]; COLO 205, read-out: LC50",41.7 µM
same,IC50,[10]; KM12,3.13 µM
same,CC50,"[10]; KM12, read-out: LC50",> 100 µM
same,IC50,[11]; SW-620,3.43 µM
same,CC50,"[11]; SW-620, read-out: LC50",75.8 µM
same,IC50,[12]; 786-0,3.85 µM
same,CC50,"[12]; 786-0, read-out: LC50",> 100 µM
same,IC50,[13],3.86 µM
same,CC50,[13]; read-out: LC50,37.3 µM
same,IC50,[14]; TK-10,3.41 µM
same,CC50,"[14]; TK-10, read-out: LC50",39.6 µM
same,IC50,[15]; MCF7,2.48 µM
same,CC50,"[15]; MCF7, read-out: LC50",54.1 µM
same,IC50,[16],3.5 µM
same,CC50,[16]; read-out: LC50,> 100 µM
same,IC50,[17]; BT-549,2.18 µM
same,CC50,"[17]; BT-549, read-out: LC50",31.6 µM
same,IC50,[18],2.32 µM
same,CC50,[18]; read-out: LC50,44.8 µM
same,IC50,[19]; IGROV-1,3.56 µM
same,CC50,"[19]; IGROV-1, read-out: LC50",72.4 µM
